Data taken from US7179800B2 (priority 2002, dated 2007).
Like-named read-outs stand apart in the source and are kept apart here.

Key:
CB1 receptor [1] = target: T1, CB1 receptor (Rattus norvegicus, UniProt P20272); details: values from Hanu et al 1999; ligand [3H]HU-243; cited from earlier work
Male ICR mice [2] = test: Tail-flick antinociception (TF, % MPE) in mice; assay type: in vivo, mouse; details: for T.F. % effect at dose: Table 6
Experimental: (§1) Male ICR mice (25–32 g), obtained from Harlan (Dublin, Va.), were housed in groups of five. All animals were kept in a temperature-controlled (20–22° C.) environment with a 12-hour light-dark cycle (lights on at 7 a.m.). Separate mice were used for testing each drug dose in the in vivo behavioral procedures. Brain tissue for binding studies was obtained from male Sprague-Dawley rats (150–200 g) purchased from Harlan Laboratories (Dublin, Va.).
(§2) Measurement of spontaneous activity in mice occurred in standard activity chambers interfaced with a Digiscan Animal Activity Monitor (Omnitech Electronics, Inc., Columbus, Ohio). A standard tail-flick apparatus and a digital thermometer (Fisher Scientific, Pittsburgh, Pa.) were used to measure antinociception and rectal temperature, respectively
(§3) Resorcinols were synthesized in our labs (Organix, Inc., Woburn, Mass.) according to the procedure specified below and were suspended in a vehicle of absolute ethanol, Emulphor-620 (Rhone-Poulenc, Inc., Princeton, N.J.), and saline in a ratio of 1:1:18. Drugs were administered to the mice intravenously (i.v.) in the tail vein at a volume of 0.1 ml/10 g.
(§4) Prior to testing in the behavioral procedures, mice were acclimated to the experimental setting (ambient temperature 22–24° C.) overnight. Pre-injection control values were determined for rectal temperature and tail-flick latency (in sec). […] Tail-flick latency was measured at 20 min post-injection. Maximum latency of 10 sec was used. Antinociception was calculated as percent of maximum possible effect {% MPE=[(test−control latency)/(10-control)]×100}. Control latencies typically ranged from 1.5 to 4.0 sec. At 30 min post-injection, rectal temperature was measured This value was expressed as the difference between control temperature (before injection) and temperatures following drug administration (° C.). Different mice (n=5–6 per dose) were tested for each dose of each compound. Each mouse was tested in each of the 3 procedures.
(§5) Based on data obtained from numerous previous studies with cannabinoids, maximal cannabinoid effects in each procedure were estimated as follows: 90% inhibition of spontaneous activity, 100% MPE in the tail flick procedure, and −6° C. change in rectal temperature. ED50's were defined as the dose at which half maximal effect occurred. For drugs that produced one or more cannabinoid effect, ED50's were calculated separately using least-squares linear regression on the linear part of the dose-effect curve for each measure in the mouse tetrad, plotted against log10 transformation of the dose. For the purposes of potency comparison, potencies were expressed as μmol/kg.

Male ICR mice [3] = test: Lethality noted in the mouse behavioral procedures; assay type: in vivo; details: Table 6; @ 30 (mg/kg)
Experimental: as §3, §4

Male ICR mice [4] = test: Suppression of spontaneous activity (SA) in mice; assay type: in vivo, mouse
Experimental: as §1, §2, §3, §4, §5

CB2 receptor = target: T2, CB2 receptor (Homo sapiens, UniProt P34972); test: CB2 binding procedure: displacement of [3H]CP-55,940 from membranes of transfected CHO cells; details: for Ki: means ± SEM, [3H]CP-55,940, transfected CHO cell membranes, read-out: Ki (nM) CB2
T2 construct: expressed in transfected cells; host or cells: CHO cells, G418-selected transfected line
Experimental: Membranes for CB2 binding were obtained from CHO cells. The transfected cell line was maintained in Dublecco's Modified Eagle Medium (Gibco BRL, Grand Island, N.Y.) with 10% fetal clone II (HyClone Laboratories, Inc., Logan, Utah) plus 0.3 to 0.5 mg/ml G418 (to maintain selective pressure) under 5% CO2 at 37% C. Cells were harvested with 1 mM EDTA in phosphate-buffered saline and were centrifuged at 1000×g for 5 min at 4% C. The supernatant was saved and the P1 pellet was resuspended in centrifugation buffer. Homogenization and centrifugation were repeated twice and the combined supernatant fractions were centrifuged at 40,000×g for 30 min at 4% C. The P2 pellet was resuspended in centrifugation buffer 2 (Tris HCl, 50 mM; EDTA, 1 mM; and MgCl2, 3 mM, pH 7.4) to a protein concentration of approximately 2 mg/ml. Protein concentrations were determined by the method of Bradford (1976) using Bio-Rad Protein Assay (Bio-Rad, Richmond, Calif.) and BSA standards (fatty acid free, Sigma Chemical Co., St. Louis, Mo.). The membrane preparation was divided into amounts convenient for binding assays and frozen rapidly in dry ice and stored at −80% C.
Binding was initiated by the addition of 50 μg of quickly thawed P2 membranes to test tubes containing [^3H]CP-55,940 (final reaction concentration 0.5 nM), an appropriate concentration of unlabeled CP-55,940 or test drug, and sufficient quantity of assay buffer (50 mM Tris-HCl, 1 mM EDTA, 3 mM MgCl2, 5 mg/ml bovine serum albumin, pH 7.4) to bring the total incubation volume to 0.5 ml. Concentration of [^3H]CP-55,940 in saturation studies ranged from 50 to 10,000 pM. Nonspecific binding was determined by the addition of 1 μM unlabeled CP-55,940. CP-55,940 and all cannabinoid analogs were prepared by suspension in assay buffer from a 1 mg/ml ethanolic stock without evaporation of the ethanol (final concentration of no more than 0.4%). In competition studies, analog concentrations ranged from 0.1 nM to 10 μM. After incubation at 30% C for 1 hr, binding was terminated by the addition of 2 ml of ice-cold wash buffer (50 mM Tris-HCl and 1 mg/ml BSA) and vacuum filtration through pre-treated filters in a 12-well sampling manifold (Millipore, Bedford, Mass.). Reaction vessels were washed once with 2 ml of ice-cold wash buffer. Filters were placed into 7-ml plastic scintillation vials (RPI Corp., Mount Prospect, Ill.) with 4 ml of Budget-Solve (RPI Corp.). After shaking for 30 min, the radioactivity present was determined by liquid scintillation spectrometry. Three reaction vessels were used for each drug concentration in each assay. The results represent the combined data of three independent experiments. All assays were performed in siliconized test tubes, which were prepared by air drying (12 hr) inverted borosilicate tubes after two rinses with a 0.1% solution of AquaSil (Pierce, Rockford, Ill.). The GF/C glass-fiber filters (2.4 cm, Baxter, McGaw Park, Ill.) were pre-treated in a 0.1% solution of pH 7.4 polyethylenimine (Sigma Chemical Co.) for at least 6 hr.
(§6) In addition, multiple linear regression was used to calculate the overall degree of relationship between CB1 binding affinity and potency in the mouse measures for all active cannabinoids. […] Ki values for CB1 and CB2 binding were obtained from Scatchard displacement analysis as determined via EBDA program of the KELL software package (Biosoft, Milltown, N.J.).

Male ICR mice [5] = test: Change in rectal temperature (RT) in mice; assay type: in vivo, mouse; details: for R.T. effect at dose: Table 6
Experimental: as §1, §2, §3, §4, §5

CB1 receptor [6] = target: T1, CB1 receptor; test: CB1 binding procedure: displacement of [3H]CP 55,940 from rat whole-brain P2 membranes; design: whole brain was homogenized and centrifuged; from tissue; host or cells: rat whole brain, P2 membrane fraction; details: means ± SEM; [3H]CP 55,940, rat brain membranes; read-out: Ki (nM) CB1
Experimental: as §1
The methods used for tissue preparation and binding have been described previously (Compton et al., 1993) and are similar to those described by Devane et al. (1988). All assays, as described briefly below, were performed in triplicate, and the results represent the combined data from three to six individual experiments.
Following decapitation and rapid removal of the brain, whole brain was homogenized and centrifuged. The resulting pellet was termed P1. The supernatant was saved and combined with the two subsequent supernatants obtained from washing of the P1 pellet. The combined supernatant fractions were centrifuged, resulting in the P2 pellet. After further incubation and centrifuging, this pellet was resuspended in assay buffer to a protein concentration of approximately 2 mg/ml. The membrane preparation was quickly frozen in a bath solution of dry ice and 2-methylbutane (Sigma Chemical Co., St. Louis, Mo.), then stored at −80° C. for no more than 2 weeks. Prior to performing a binding assay an aliquot of frozen membrane was rapidly thawed and protein values determined by the method of Bradford (1976).
Binding was initiated by the addition of 150 μg of P2 membrane to test tubes containing 1 nM of [^3H] CP 55,940 (79 Ci/mmol) and a sufficient quantity of buffer to bring the total incubation volume to 1 ml. Nonspecific binding was determined by the addition of 1 μM unlabeled CP 55,940. Following incubation at 30° C. for 1 hr, binding was terminated by addition of ice cold buffer and vacuum filtration through pretreated filters in a 12-well sampling manifold (Millipore, Bedford, Mass.). After washing, filters were placed into plastic scintillation vials (Packard, Downer Grove, Ill.) and shaken. The quantity of radioactivity present was determined by liquid scintillation spectrometry.
as §6

T1 sequence (P20272 whole entry): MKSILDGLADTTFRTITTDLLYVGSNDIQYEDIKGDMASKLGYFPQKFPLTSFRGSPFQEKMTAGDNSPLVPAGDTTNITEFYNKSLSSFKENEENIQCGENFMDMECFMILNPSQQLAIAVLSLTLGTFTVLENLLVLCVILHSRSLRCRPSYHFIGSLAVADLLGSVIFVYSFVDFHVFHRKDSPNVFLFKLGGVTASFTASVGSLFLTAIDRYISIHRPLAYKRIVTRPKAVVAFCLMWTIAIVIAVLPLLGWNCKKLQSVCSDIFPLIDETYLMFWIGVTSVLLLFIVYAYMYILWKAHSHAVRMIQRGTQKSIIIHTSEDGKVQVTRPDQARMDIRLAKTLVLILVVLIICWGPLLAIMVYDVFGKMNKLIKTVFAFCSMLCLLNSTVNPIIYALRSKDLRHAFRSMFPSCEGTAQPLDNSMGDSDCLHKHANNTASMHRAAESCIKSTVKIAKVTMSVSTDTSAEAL
T2 sequence (P34972 whole entry): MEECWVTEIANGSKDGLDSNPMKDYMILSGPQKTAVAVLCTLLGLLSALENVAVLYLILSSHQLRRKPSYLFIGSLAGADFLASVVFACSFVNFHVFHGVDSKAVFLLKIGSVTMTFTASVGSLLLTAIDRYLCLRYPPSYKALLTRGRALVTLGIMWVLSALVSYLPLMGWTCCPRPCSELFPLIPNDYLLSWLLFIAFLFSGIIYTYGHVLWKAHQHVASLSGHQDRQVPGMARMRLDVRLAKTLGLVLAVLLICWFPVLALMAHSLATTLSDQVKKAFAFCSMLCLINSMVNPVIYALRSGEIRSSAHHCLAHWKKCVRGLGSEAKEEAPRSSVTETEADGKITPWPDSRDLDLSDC

| Structure (SMILES) | Ki (CB1 receptor [1]) | T.F. % effect at dose (Male ICR mice [2]; @ 10 (mg/kg)) | TF percent effect (% MPE) at the highest dose (Male ICR mice [2]; mice, i.v., 30 mg/kg) | Lethality at dose (Male ICR mice [3]) | S.A % effect at dose, stim. (Male ICR mice [4]; Table 6, stimulation, @ 10 (mg/kg)) | SA percent effect at the highest dose (Male ICR mice [4]; mice, i.v., 30 mg/kg, % inhibition of activity of vehicle group) | Ki (CB2 receptor) | R.T. effect at dose (Male ICR mice [5]; @ 10 (mg/kg)) | RT effect at the highest dose (change in rectal temperature) (Male ICR mice [5]; mice, i.v., 30 mg/kg) | Ki (CB1 receptor [6]) | T.F. % effect at dose (Male ICR mice [2]; @ 30 (mg/kg)) | S.A % effect at dose (Male ICR mice [4]; Table 6, @ 30 (mg/kg)) | fold decrease in CB2 affinity (CB2 receptor; relative to the comparator analog) | R.T. effect at dose (Male ICR mice [5]; @ 30 (mg/kg)) |
| --- | --- | --- | --- | --- | --- | --- | --- | --- | --- | --- | --- | --- | --- | --- |
| CCCCCCC(C)(C)c1cc(OC)c([C@@H]2C=C(CO)[C@@H]3C[C@H]2C3(C)C)c(OC)c1 [HU-308] | > 10000 nM |  |  |  |  |  |  |  |  |  |  |  |  |  |
| CCCCCCC(C)(C)c1cc(O)c(C2CCN(C)CC2)c(O)c1 [O-1662, 2-(1-Methylpiperidin-4-yl)-5-(1′,1′-dimethylheptyl)-re-sorcinol] |  | 7 @ 10% | 30%(30) | Lethal | 77% stim. | 87%(30) | 5420 ± 1100 nM | 1 °C | −3(30) °C | > 10000 nM |  |  |  |  |
| CCCCCCC(C)(C)c1cc(OC)c(C2CCCC(C)C2)c(OC)c1 (stereo not shown) [O-1999] |  |  |  |  |  |  | 466 ± 110 nM |  |  | > 10000 nM | 6 @ 30% | 4 @ 30% | ~600 fold | 1 @ 30 °C |
